≈ marks a conversion by molar mass, not a printed value.
Legend:
[1] = tested on: Candida albicans SANK 51486; test: In vitro antifungal activity (MIC), Candida albicans; format: cell-based; conditions: SANK51486, MIC = lowest concentration causing at least 80% growth inhibition (IC80), RPMI1640 pH 7.0, 35° C., trans isomers
Protocol: (§1) The antifungal activities of test compounds were assessed according to their minimum inhibitory concentrations (MICs) which were measured by the methods described below.
(§2) Liquid medium: RPMI1640 medium which was buffered to pH 7.0 (without an indicator) with 0.165M 3-(morpholino)propanesulfonic acid was used for Candida albicans and Aspergillus fumigatus. Yeast Nitrogen Base medium which was buffered to pH 7.0 with 0.165M 3-(morpholino)propanesulfonic acid was used for Cryptococcus neoformans.
(§3) Preparation of inoculation fungi solution: Each test fungi solution of Candida albicans and Cryptococcus neoformans was incubated on Sabouraud agar medium at 35° C. for 48 hours. About five colonies of the test fungi having 1 mm diameter were suspended in physiological saline and the transmittance of the suspension was adjusted to Macfarland 0.5 degree. A one thousand-fold diluted suspension of the resulting suspension was prepared by dilution with the liquid medium described above and was used for Candida albicans. A one hundred-fold diluted suspension of the resulting suspension was prepared by dilution with the liquid medium described above and was used for Cryptococcus neoformans. Aspergillus fumigatus was incubated on Potato dextrose agar at 35° C. for five days. Spores on the agar medium were collected with physiological saline containing 0.05% Tween 80 and the number of spores was adjusted to 2.5×10^7/ml using a blood cell counter. A one thousand-fold diluted suspension was prepared by dilution of the resulting spore suspension with the liquid medium described above and was used for Aspergillus fumigatus.
(§4) Preparation of test compound solution: Each test compound was dissolved in 100% dimethyl sulfoxide and serial two-fold dilutions of each compound were prepared with 100% dimethyl sulfoxide. The final concentration of dimethyl sulfoxide was adjusted to not greater than 1% by dilution with each liquid medium described above respectively.
(§5) Assessment method: Each diluted test compound (100 μl), the inoculation fungi solution (80 μl) and Alamar blue solution (20 μl) was sequentially added to each of wells of microtiter plate having 96 wells. The resulting mixture was incubated at 35° C. (30° C. for Aspergillus fumigatus). When the light absorbance at 570 nm of growth control exceeded 0.6, the MICs were determined. The MICs were defined as the lowest compound concentrations causing at least 80% growth inhibition (IC80) compared with the control to which the test compound was not added.

[2] = tested on: Cryptococcus neoformans TIMM 1855; test: In vitro antifungal activity (MIC), Cryptococcus neoformans; format: cell-based; conditions: TIMM1855, MIC = lowest concentration causing at least 80% growth inhibition (IC80), Yeast Nitrogen Base pH 7.0, 35° C., trans isomers
Protocol: as §1, §2, §3, §4, §5

[3] = tested on: Aspergillus fumigatus SANK 10569; test: In vitro antifungal activity (MIC), Aspergillus fumigatus; format: cell-based; conditions: SANK10569, MIC = lowest concentration causing at least 80% growth inhibition (IC80), RPMI1640 pH 7.0, 30° C., trans isomers
Protocol: as §1, §2, §3, §4, §5

SMILES | MIC [1] [mg/L] | MIC [2] [mg/L] | MIC [3] [mg/L] | melting point [°C]
C[C@@H](SC1COC(c2ccccc2)OC1)[C@](O)(Cn1cncn1)c1ccc(F)cc1F (some centres unmarked) [Comparative compound (A), reference compound] | 0.063 (≈ 0.141 µM) | 0.25 (≈ 0.559 µM) | 4 (≈ 8.94 µM) | 
C[C@@H](S[C@H]1CO[C@H](c2ccc(C(=O)Nc3ccc(OCC(F)(F)C(F)F)cc3)cc2)OC1)[C@](O)(Cn1cncn1)c1ccc(F)cc1F [Example 1, 4-[trans-5-[[(1R,2R)-2-(2,4-Difluorophenyl)-2-hydroxy-1-methyl-3-(1H-1,2,4-triazol-1-yl)propyl]thio]-1,3-dioxan-2-yl]-4′-(2,2,3,3-tetrafluoropropoxy)benzanilide] | 0.016 (≈ 0.023 µM) | 0.063 (≈ 0.0904 µM) | 0.125 (≈ 0.179 µM) | 156
C[C@@H](S[C@H]1CO[C@H](c2ccc3cc(C(=O)Nc4ccc(C#N)cc4)ccc3c2)OC1)[C@](O)(Cn1cncn1)c1ccc(F)cc1F [Example 3, 4′-Cyano-6-[trans-5-[[(1R,2R)-2-(2,4-difluorophenyl)-2-hydroxy-1-methyl-3-(1H-1,2,4-triazol-1-yl)propyl]thio]-1,3-dioxan-2-yl]-2-naphthoanilide] | ≤ 0.008 | 0.063 (≈ 0.0982 µM) | 0.063 (≈ 0.0982 µM) | 114
C[C@@H](S[C@H]1CO[C@H](c2cccc(C(=O)Nc3ccc(Cl)cc3)c2)OC1)[C@](O)(Cn1cncn1)c1ccc(F)cc1F [Example 9, 4′-Chloro-3-[trans-5-[[(1R,2R)-2-(2,4-difluorophenyl)-2-hydroxy-1-methyl-3-(1H-1,2,4-triazol-1-yl)propyl]thio]-1,3-dioxan-2-yl]benzanilide] | ≤ 0.008 | 0.25 (≈ 0.416 µM) | 2 (≈ 3.33 µM) | 90
C[C@@H](S[C@H]1CO[C@H](c2ccc(C(=O)Nc3ccc(O)cc3)cc2)OC1)[C@](O)(Cn1cncn1)c1ccc(F)cc1F [Example 23, 4-[trans-5-[[(1R,2R)-2-(2,4-Difluorophenyl)-2-hydroxy-1-methyl-3-(1H-1,2,4-triazol-1-yl)propyl]thio]-1,3-dioxan-2-yl]-4′-hydroxybenzanilide] | 0.016 (≈ 0.0275 µM) | 0.25 (≈ 0.429 µM) | 0.5 (≈ 0.858 µM) | 254
C[C@@H](S[C@H]1CO[C@H](c2ccc(C(=O)NCc3ccc(C#N)cc3)cc2)OC1)[C@](O)(Cn1cncn1)c1ccc(F)cc1F [Example 26, N-(4-Cyanobenzyl)-4-[trans-5-[[(1R,2R)-2-(2,4-difluorophenyl)-2-hydroxy-1-methyl-3-(1H-1,2,4-triazol-1-yl)propyl]thio]-1,3-dioxan-2-yl]benzamide] | 0.016 (≈ 0.0264 µM) | 0.25 (≈ 0.413 µM) | 0.25 (≈ 0.413 µM) | 188
